According to patent US20150175545A1, “Preparation Method of Fluoro-Substituted Deuterated Diphenylurea” (SUZHOU ZELGEN BIOPHARMACEUTICAL CO., LTD, priority 2012, published 2015):
Where “and” joins values, the source holds several entries; their conditions need not be identical. Equal entries are not always repeated. Where two headings read alike, the source gives them in different places.

Tests used:
[1] = Pharmacokinetic evaluation of CM4306, CM4308 and CM4309 in rats (mixed solution, intragastric); format: in vivo, SD rats; conditions: 4 mg/kg intragastric, mixed solution in PEG400, plasma; for MRT inf: read-out: MRT(0-∞)
Protocol: Blood samples were collected at 0.25, 0.5, 1.0, 2.0, 3.0, 5.0, 7.0, 9.0, 24, 36, 48 and 72 h after the administration.

[2] = target: c-Kit protein tyrosine kinase (Homo sapiens, UniProt P10721); assay: ELISA inhibition of c-Kit protein tyrosine kinase at the molecular level; format: biochemical; conditions: for results (inhibition efficacy): c-Kit and PDGFR-β, efficacy if inhibition rate at 10^-5 mol/L greater than 50%
Chain of c-Kit protein tyrosine kinase (P10721 26-976): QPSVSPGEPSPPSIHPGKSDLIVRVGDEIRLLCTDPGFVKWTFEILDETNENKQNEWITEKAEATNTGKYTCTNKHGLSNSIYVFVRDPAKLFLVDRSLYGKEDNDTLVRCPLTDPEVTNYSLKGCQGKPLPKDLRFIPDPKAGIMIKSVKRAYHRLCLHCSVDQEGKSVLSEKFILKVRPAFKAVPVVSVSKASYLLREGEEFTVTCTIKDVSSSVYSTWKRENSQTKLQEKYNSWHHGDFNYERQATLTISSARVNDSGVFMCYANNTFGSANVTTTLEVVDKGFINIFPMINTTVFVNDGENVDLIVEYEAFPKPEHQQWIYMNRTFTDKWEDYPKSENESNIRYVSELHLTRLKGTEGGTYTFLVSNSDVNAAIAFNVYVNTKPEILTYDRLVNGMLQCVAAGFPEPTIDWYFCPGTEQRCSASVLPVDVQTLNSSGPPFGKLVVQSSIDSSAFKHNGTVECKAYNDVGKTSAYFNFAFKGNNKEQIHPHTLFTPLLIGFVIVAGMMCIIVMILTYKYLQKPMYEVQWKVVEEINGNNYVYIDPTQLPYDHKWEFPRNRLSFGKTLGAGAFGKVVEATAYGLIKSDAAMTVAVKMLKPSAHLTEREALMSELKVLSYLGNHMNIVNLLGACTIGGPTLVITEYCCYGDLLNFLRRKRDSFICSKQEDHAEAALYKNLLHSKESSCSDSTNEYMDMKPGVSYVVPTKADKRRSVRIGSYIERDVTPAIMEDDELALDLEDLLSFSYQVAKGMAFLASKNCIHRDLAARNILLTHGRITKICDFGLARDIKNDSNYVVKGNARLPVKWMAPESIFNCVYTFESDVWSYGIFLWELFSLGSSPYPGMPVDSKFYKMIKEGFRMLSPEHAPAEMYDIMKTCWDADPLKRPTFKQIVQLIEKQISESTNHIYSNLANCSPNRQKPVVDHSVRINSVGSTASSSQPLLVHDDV
Protocol: (§1) The activity of diphenylurea compounds for inhibiting c-Kit, PDGFR-β protein tyrosine kinases on molecular level was tested by Enzyme-Linked Immunosorbent Assay (ELISA).
(§2) Reacting substrate Poly(Glu,Tyr)4:1 was bought from Sigma; Monoclonal antibody against tyrosine phosphate PY99 was bought from Santa Cruz; Horseradish peroxidase labeled sheep-against-rat IgG was bought from Calbiochem; ATP, DTT, OPD were bought from Amresco; microplates were bought from Corning; Su11248 was bought from Merk.
(§3) See Roskoski, R., Jr. Sunitinib: a VEGF and PDGF receptor protein kinase and angiogenesis inhibitor. Biochem Biophys Res Commun, 356: 323-328, 2007. The details comprise:
Kinase reaction substrate Poly(Glu,Tyr)4:1 was diluted to 20 μg/ml by potassium-free PBS, and the microplates were coated. Diphenylurea samples to be tested were added in the wells of the coated microplates (the samples to be tested were made from the stock solution of 10^−2 M in DMSO, and diluted to the desired concentration with reaction buffer before use. The resulted solution was added into the wells to get the final concentration of 10^−5 mol/L in 100 μL reaction system). At the same time, the positive control compound Su11248 was added to the positive control wells.
ATP solution diluted with reaction buffer (the final concentration of ATP is 5 μM) and tyrosine kinase for testing diluted with reaction buffer were added in turn. The total volume of reaction system was 100 μL. At the same time, the negative control wells and the control wells without enzyme were set up.
The reaction system was placed in a wet box and shaked for 1 h at 37° C. by shaking shielding from light. After the reaction was completed, plates were washed three times with T-PBS. Antibody PY99 was added (100 μL/well), and plates were shaked for 30 min at 37° C. After the reaction was completed, the plates were washed with three times T-PBS. Horseradish peroxidase labeled sheep-against-rat IgG was added (100 μL/well), and the plates were shaked for 30 min at 37° C. After the reaction was completed, the plates were washed with T-PBS for three times. OPD developing liquid was added (100 μL/well), and reacted for 1-10 min at room temperature shielding from light. 50 μL of 2 M H2SO4 was added to quench the reaction. A492 value was determined using wavelength-adjustable microplates reader VERSAmax.
(§4) The inhibition ratio of samples can be calculated by the following formula: […]

[3] = system: human liver cancer cell SMMC-7721; assay: Nude mice xenograft model inoculated with SMMC-7721 cells, tumor growth inhibition; format: in vivo; conditions: 30 mg/kg intragastric every day for 2 weeks; for relative tumor increment rate T/C %: effective if T/C ≦40% and p<0.05
Protocol: The establishment of tumor-bearing nude mice xenograft model: SMMC-7721 cells in logarithmic growth period were cultured. After cell number was counted, the cells were suspended in 1×PBS, and the concentration of the cell suspension was adjusted to 1.5×10^7/ml. The tumor cells were inoculated (s.c.) 3×10^6/0.2 ml/mice under the right armpit of nude mice. 45 nude mice were inoculated in total. When the tumor size reached 30-130 mm^3, 34 mice were randomly divided into different groups. […] Administration of testing drugs was started. […] Observation continued upon the withdraw till the tumor volume was larger than 2000 mm^3. The weight of animals and tumor size were tested twice a week during the experiment. […] The formula for calculating the tumor volume (TV) is: TV=a×b^2/2, wherein a and b independently and respectively represent the length and the breadth of the tumor. The formula for calculating the relative tumor volume (RTV) is: RTV=Vt/V0, wherein V0 is the tumor volume at the beginning of the administration, and Vt is […] when measured. The index for evaluating the antitumor activity is relative tumor increment rate T/C (%), and the calculation formula is: T/C (%)=(TRTV/CRTV)×100%, wherein, TRTV is the RTV for the treatment group, and CRTV is the RTV for the negative control group. Evaluation standard for efficacy: it is effective if the relative tumor increment rate T/C (%) is ≦40% and p<0.05 by statistics analysis.

[4] = target: PDGFR-β protein tyrosine kinase (Homo sapiens, UniProt P09619); assay: ELISA inhibition of PDGFR-β protein tyrosine kinase at the molecular level; format: biochemical; conditions: 10 μM compound, ATP 5 μM, mean of duplicate experiments
Chain of PDGFR-β protein tyrosine kinase (P09619 33-1106): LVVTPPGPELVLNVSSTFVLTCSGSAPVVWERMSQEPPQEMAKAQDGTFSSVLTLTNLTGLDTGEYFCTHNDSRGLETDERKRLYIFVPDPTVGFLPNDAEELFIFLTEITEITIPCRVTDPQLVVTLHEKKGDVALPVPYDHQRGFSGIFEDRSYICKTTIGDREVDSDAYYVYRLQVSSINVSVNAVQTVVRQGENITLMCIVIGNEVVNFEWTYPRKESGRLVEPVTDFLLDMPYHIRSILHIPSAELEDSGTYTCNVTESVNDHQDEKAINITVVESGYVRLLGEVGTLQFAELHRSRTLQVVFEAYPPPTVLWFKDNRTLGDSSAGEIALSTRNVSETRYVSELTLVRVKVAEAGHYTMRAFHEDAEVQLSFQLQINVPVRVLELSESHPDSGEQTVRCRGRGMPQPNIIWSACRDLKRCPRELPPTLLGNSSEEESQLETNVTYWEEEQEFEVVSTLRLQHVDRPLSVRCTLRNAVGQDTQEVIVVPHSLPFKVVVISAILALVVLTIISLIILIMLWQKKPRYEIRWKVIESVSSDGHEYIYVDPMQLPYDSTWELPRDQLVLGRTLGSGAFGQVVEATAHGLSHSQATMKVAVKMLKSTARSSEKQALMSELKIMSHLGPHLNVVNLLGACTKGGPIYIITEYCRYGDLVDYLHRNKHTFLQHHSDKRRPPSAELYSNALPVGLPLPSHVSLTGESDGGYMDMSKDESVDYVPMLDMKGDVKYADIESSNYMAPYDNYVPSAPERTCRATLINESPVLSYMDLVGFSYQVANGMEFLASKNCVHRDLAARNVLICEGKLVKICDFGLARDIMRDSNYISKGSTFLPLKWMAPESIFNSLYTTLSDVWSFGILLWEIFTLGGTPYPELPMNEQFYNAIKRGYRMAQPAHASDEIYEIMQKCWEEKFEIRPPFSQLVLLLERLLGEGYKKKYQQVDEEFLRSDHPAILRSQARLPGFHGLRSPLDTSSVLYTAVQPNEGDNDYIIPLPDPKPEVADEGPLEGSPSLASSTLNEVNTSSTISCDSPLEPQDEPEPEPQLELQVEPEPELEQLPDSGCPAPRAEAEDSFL
Protocol: as §1, §2, §3
Kinase reaction substrate Poly(Glu,Tyr)4:1 was diluted to 20 μg/ml by potassium-free PBS, and the microplates were coated. […]
The reaction system was placed in a wet box and shaked for 1 h at 37° C. by shaking shielding from light. […] A492 value was determined using wavelength-adjustable microplates reader VERSAmax.
as §4

[5] = male, SD, rat, plasma, po, 4 mg/kg, individual rat
[6] = male, SD, rat, plasma, po, 4 mg/kg, mean value of 3 rats
[7] = male, SD, rat, plasma, po, 4 mg/kg, mean value of 3 rats, read-out: Cmax
[8] = male, SD, rat, plasma, po, 4 mg/kg, mean value of 3 rats, read-out: Tmax

Structure (SMILES) | AUC(0-t) ([1]; individual rat, 4 mg/kg) | AUC(0-∞) ([1]; individual rat, 4 mg/kg) | Cmax ([1]; individual rat, 4 mg/kg) | MRT(0-∞) ([1]; individual rat, 4 mg/kg) | Tmax ([1]; individual rat, 4 mg/kg) | AUC(0-inf) [1, 5] | half-life [1, 5] | MRT inf [1, 5] | AUC(0-inf) [1, 6] | Cmax [1, 7] | MRT inf [1, 6] | Tmax [1, 8] | AUC(0-t) ([1]; mean value of 3 rats) | results (inhibition efficacy) [2] | T1/2 ([1]; individual rat, 4 mg/kg) | half-life [1, 6] | relative tumor increment rate T/C % [3] | also measured
CNC(=O)c1cc(Oc2ccc(NC(=O)Nc3ccc(Cl)c(C(F)(F)F)c3)cc2)ccn1 [CM4306, 4-(4-(3-(4-chloro-3-(trifluoromethyl)phenyl]ureido)-phenoxy)-(N-methyl)picolinamide] | 23431 ng·h/mL and 40239 ng·h/mL and 24571 ng·h/mL | 41544 ng·h/mL and 25008 ng·h/mL | 642 ng/mL and 1568 ng/mL and 651 ng/mL | 23.2 h and 23.9 h | 8.0 h and 2.0 h | 24600 ng·h/mL | 14.8 h | 28.2 h | 30400 ng·h/mL | 954 ng/mL | 25.1 h | 6 h | 29414 ng·h/mL | effective |  |  |  | 
CNC(=O)c1cc(Oc2ccc(NC(=O)Nc3ccc(Cl)c(C(F)(F)F)c3)c(F)c2)ccn1 [CM4308, 4-(4-(3-(4-chloro-3-(trifluoromethyl)phenyl]ureido)-3-fluorophenoxy)-N-methylpicolinamide] | 11473 ng·h/mL and 9327 ng·h/mL and 18558 ng·h/mL | 9541 ng·h/mL and 18973 ng·h/mL | 378 ng/mL and 279 ng/mL and 817 ng/mL | 24.1 h and 21.7 h | 8.0 h and 6.0 h and 1.0 h | 11600 ng·h/mL | 10.1 h | 21 h | 13400 ng·h/mL | 491 ng/mL | 22.2 h | 5 h | 13119 ng·h/mL | effective | 11.7 h and 11.4 h | 11.1 h | 51.6% | 
[2H]C([2H])([2H])NC(=O)c1cc(Oc2ccc(NC(=O)Nc3ccc(Cl)c(C(F)(F)F)c3)c(F)c2)ccn1 [CM4309, 4-(4-(3-(4-chloro-3-(trifluoromethyl)phenyl]ureido)-3-fluorophenoxy)-N-(methyl-d3)picolinamide] | 22220 ng·h/mL and 35592 ng·h/mL and 25601 ng·h/mL | 41702 ng·h/mL and 28899 ng·h/mL | 933 ng/mL and 530 ng/mL | 39.1 h and 36.7 h | 24.0 h and 1.0 h and 8.0 h | 27400 ng·h/mL | 26.7 h | 45.9 h | 32700 ng·h/mL | 644 ng/mL | 40.6 h | 11 h | 27804 ng·h/mL | effective | 23.4 h and 20.9 h | 23.7 h | 27.0% and < 40% | Cmax ([1]; male, SD, rat, plasma, po, 4 mg/kg, individual rat, read-out: Cmax): 470 ng/mL; effect on tumor growth (tumor volume vs control group) ([3]; p<0.01 vs control group): significant effect in inhibiting tumor growth
CCN(CC)CCNC(=O)c1c(C)[nH]c(/C=C2\C(=O)Nc3ccc(F)cc32)c1C [Su11248] |  |  |  |  |  |  |  |  |  |  |  |  |  | effective |  |  |  | % Inhibition ratio for inhibiting tyrosine kinase at 10 μM, c-Kit mean value ([2]; 10 μM compound, ATP 5 μM, mean of duplicate experiments): 90.2%; % Inhibition ratio for inhibiting tyrosine kinase at 10 μM, PDGFR-β mean value [4]: 93.9%
